Measurements reported in US20130224110A1, “USE OF ADENOSINE RECEPTOR SIGNALING TO MODULATE PERMEABILITY OF BLOOD-BRAIN BARRIER” (CORNELL UNIVERSITY, priority 2010, published 2013).

How the values were obtained:
blood brain barrier [1] = assay: Fluorescently labeled dextran extravasation into mouse brain (fluorimetry); assay type: in vivo, mice
Method: The adenosine receptor agonists NECA, CCPA, CGS 21860, and SCH 58261 (Tocris, Ellisville, Mo.) were each dissolved in DMSO then diluted in PBS to the desired concentration; in most cases final DMSO concentrations were <0.5% (vol/vol). Lexiscan (Regadenoson; TRC, Inc., Toronto) was dissolved in PBS. For vehicle controls, DMSO was diluted in PBS to the same concentration. Dehydrated dextrans labeled with either FITC or Texas Red (Invitrogen, Carlsbad, Calif.) were re-suspended in PBS to 10 mg/ml. All experiments involving dextran injection used 1.0 mg dextran in PBS. In experiments where drug and dextran were injected concomitantly, 1.0 mg of dextran was mixed with the drug to the desired concentration in a final volume of 200 μl. In dose-response experiments, drugs and dextrans were injected concomitantly. All injections, except injections of SCH 58261, were retro-orbital i.v. with a 27-gauge needle. In the SCH 58261 experiment, SCH 58261 injections, 1 mg/kg, were intraperitoneal and mice were pre-dosed with this concentration daily for 4 days prior to the day of the experiment. An additional injection was administered at the time of the experiment. Vehicle/drug and dextrans were injected on day 5 and tissues were collected 3 h after vehicle/drug administration. In Lexiscan experiments, Lexiscan was administered i.v. with 3 injections, 5 min apart and tissues were collected at 15 min unless otherwise indicated.
In dose-response experiments and experiments with the A1 AR and A2A AR knock-out mice, drugs and dextrans were injected concomitantly. After 3 h, the mice were anesthetized with ketamine/xylazine and subjected to a nose cone containing isoflurane. They were perfused with 25-50 ml ice-cold PBS through the left ventricle of the heart then decapitated. Their brains were removed, weighed and frozen for later analysis.
Ice-cold 50 mMTris-Cl (pH 7.6) was added to frozen brains (100 μl per 100 mg brain) and were to thawed on ice. They were homogenized with a dounce homogenizer and centrifuged at […] in a microfuge for 30 min at room temperature (rt). The supernatants were transferred to new tubes and an equal volume absolute methanol was added. The samples were centrifuged again at […] for 30 min at rt. Supernatant (200 μl) was transferred to a Corning costar 96 well black polystyrene assay plate (clear bottom). Additionally, a series of standards containing 0.001-10 pg/ml dextran in 50% Tris-Cl/50% absolute methanol (vol/vol) was added to each plate. Absolute concentrations of dextrans were derived from these standard curves. Fluorimetric analysis was performed on a BioTek (Winooski, Vt.) Synergy 4. FITC-dextran was detected at 488/519 (excitation/emission) and Texas Red-dextran was detected at 592/618.

HCMECD3 cells = assay: cAMP levels in human brain endothelial cells (cAMP Screen kit); assay type: cell-based; conditions: 15 minutes
Method: […]3 cells were grown to confluencey on 24 well plates. As adenosine receptor (“AR”) stimulation is known to influence cAMP levels, cells were treated with or without various concentrations of NECA (general AR agonist), CCPA (A1 AR agonist), CGS 21860 (A2A AR agonist), DMSO vehicle, or Forksolin (induces cAMP). After 15 minutes, lysis buffer was added and the cells were frozen at -80 C to stop the reaction. Duplicate samples were used for each condition. cAMP levels were assayed using a cAMP Screen kit (Applied Biosystems, Foster City, Calif.).

blood brain barrier [2] = assay: Evans Blue dye extravasation across the blood brain barrier; assay type: in vivo, mice; conditions: single i.v. injection 100 μl 0.01 nM one hour before dye
Method: The objective of this experiment was to determine if the blood brain barrier could be modulated by activation of adenosine receptors. NECA is a non-selective adenosine receptor agonist, with similar affinities for A1, A2A and A3 adenosine receptors and a low affinity for the A2b adenosine receptor. In order to determine if activation of adenosine receptors would induce extravasation of Evans Blue dye across the blood brain barrier (BBB), mice were treated with: NECA, a non-selective adenosine receptor agonist (n=5, 100 μl 0.01 nM); SCH58261, an A2A adenosine receptor specific antagonist (n=5, 1 mg/kg); pertussis toxin, an agent known to induce BBB leakiness and as such used as a positive control (n=7, 200 μl); and, PBS as a vehicle control (n=5, 100 μl). CD73^−/− mice, which lack the ability to produce extracellular adenosine, were also treated with NECA (n=4, 100 μl 0.01 nM). Treatments were administered as a single i.v. injection one hour prior to i.v. injection of 200 μl 1% Evans Blue dye ([…] total dye injected). Four hours after administration of Evans Blue, mice were anesthetized with a ketamine/xylazine mix and perfused via the left ventricle with ice cold PBS. […] Following extraction, the tissue/solvent mixture was centrifuged at 500×g for 30 minutes and 100 μl of supernatant was read on a BioTex spectrophotometer at 620 nm. Data is expressed as μg Evans Blue/ml DMF.

[3] = cited from earlier work
hCMEC/D3 cells = assay: Jurkat cell migration across hCMEC/D3 transwell in vitro BBB; assay type: cell-based, human; conditions: 24 hours
Method: hCMEC/D3 cells were seeded onto Transwell and allowed to grow to confluencey. 2×10^6 Jurkat cells were added to the upper chamber with or without NECA (general adenosine receptor [AR] agonist), CCPA (A1 AR agonist), CGS 21860 (A2A AR agonist), or DMSO vehicle. After 24 hours, migrated cells in the lower chamber were counted. Values are relative to the number of cells that migrate through non-[…]3 seeded transwells.

SMILES	levels of i.v.-administered dextrans in brain compared to wild type mice (blood brain barrier [1]; A1−/− and A2A−/− mice, i.v., 3 h)	FITC-dextran extravasation into brain (pilot experiment, data not shown) (blood brain barrier [1]; CD73−/− mice, 10,000 Da FITC-dextran i.v.)	time of maximum entry of labeled dextran into the CNS post-treatment (blood brain barrier [1]; WT mice, 0.08 mg/kg i.v., dextran co-administered at T0)	time by which barrier permeability returns to baseline (blood brain barrier [1]; WT mice, 0.08 mg/kg i.v., dextran given at indicated times after treatment)	effect of higher concentrations on dextran entry (blood brain barrier [1]; WT mice, doses above 0.08 mg/kg)	dose giving maximum entry of dextrans into the CNS (blood brain barrier [1]; WT mice, i.v., 3 h)	CNS entry of 10,000 Da and 70,000 Da dextrans (blood brain barrier [1]; WT mice, i.v., 3 h, varying dose, vs vehicle)	cAMP levels (HCMECD3 cells)	Evans Blue dye migration vs. PBS control (blood brain barrier [2]; CD73−/− mice)	Evans Blue dye migration vs. control (blood brain barrier [2]; WT mice)	half-life [3]	lymphocyte (Jurkat) migration across the in vitro BBB (hCMEC/D3 cells)	BBB permeability after NECA administration with A2A blockade (blood brain barrier [1]; A1 AR−/− mice pre-treated with the antagonist before NECA)	entry of 10,000 Da FITC-dextran into brain (blood brain barrier [1]; WT mice, 1 mg/kg intraperitoneal daily for 4 days plus day of experiment)
CCNC(=O)[C@H]1O[C@@H](n2cnc3c(N)ncnc32)[C@H](O)[C@@H]1O [NECA, 5′-N-ethylcarboxamido adenosine]	significantly lower levels	dramatic increase in FITC-dextran extravasation	4 to 6 h	8 to 18 h	no additional effect or show diminished efficacy	0.08 mg/kg	dose-dependent increases in CNS entry	increased cAMP levels	almost five fold increase	increase over control mice	~5 h	induced some migration		
Nc1nc2c(cnn2CCc2ccccc2)c2nc(-c3ccco3)nn12 [SCH58261, 2-(2-Furanyl)-7-(2-phenylethyl)-7H-pyrazolo[4,3-e][1,2,4]triazolo[1,5-c]pyrimidin-5-amine]													no significant increase in BBB permeability was observed	significantly decreased entry of 10,000 Da FITC-dextran
